According to US12083119B2, “Methods and compositions for treating viral or virally-induced conditions” (VIRACTA SUBSIDIARY, INC., priority 2010, dated 2024):

Columns and labels:
EBV TK = test: Thymidine kinase expression assay (RT and real-time PCR of TK mRNA); assay type: cell-based, Epstein-Barr virus; parameters: TK expression: dose or concentration left out as unconfirmed
Experimental: To measure the relative level of TK mRNA in various total RNA preparations, reverse transcription and quantitative PCR using real time PCR technology was used. Five micrograms of total RNA was reverse-transcribed using random hexamer primers and Superscript III cDNA synthesis kit (Invitrogen). The cDNA was diluted to a final volume of 60 μl with sterile water, 8 μl of which was then used in each real time PCR reaction in an ABI 7500 Sequencher using SYBR-Green technology. Primers used for the amplification of TK were EBV-TK1-F: 5′-[…]-3′ (SEQ ID NO: 1); EBV-TK1-R: 5′-[…]-3′ (SEQ ID NO: 2). The β-actin mRNA levels in those samples were determined similarly using β-actin-specific primers Actin/hu-F: 5′-[…]-3′ (SEQ ID NO: 3); Actin/hu-R: 5′-[…]-3′ (SEQ ID NO: 4). The relative level of TK expression in a sample was calculated following normalization of β-actin expression level.
(§1) The induction of lytic phase was assayed in EBV-positive lymphoma cell lines exposed to different HDAC inhibitors (HDACi) for 24-48 hrs, then the expression of EBV TK and other EBV transcripts by RT-PCR analysis was quantified. To determine tumor cytotoxic activity of the combination of HDACi and GCV, EBV+ lymphoma cells were exposed to a range of concentrations of HDAC inhibitors and ganciclovir (GCV) for 3 days and then to GCV alone for another 3 days. Efficacy of a particular HDAC inhibitor in the combination treatment approach was then determined by enumerating living cells. A general experimental protocol is described below.
P3HR1 cells were seeded in 60 mm plates containing 3×10^6 cells in 3 ml of fresh growth media. Appropriate concentrations of HDAC inhibitors were added to the plate and cells were incubated in the presence of HDAC inhibitors for 6 h, 24 h, 48 h, or as needed. Cells were harvested by centrifugation and washed once in cold PBS. Total cellular RNA was then extracted. To measure the relative level of TK mRNA in various total RNA preparations, reverse transcription and quantitative PCR using real time PCR analysis were used. See, Ghosh, S. K., Forman, L. W., Akinsheye, I., Perrine, S. P., Faller, D. V.: Short discontinuous sodium butyrate exposure efficiently sensitizes latently EBV infected cells towards nucleoside analogue-mediated growth inhibition, Blood Cells Mol. Diseases (2007), 38:57-65. The relative level of TK expression in a sample was calculated following normalization of β-actin expression level.

P3HR1 cells [1] = assay type: cell-based, human; settings: for effective concentration: in the presence of GCV
Experimental: as §1
(§2) The EBV-positive B lymphoma cell line P3HR1 was used in the study. The P3HR1 cell line was originally derived from Burkitt's lymphoma patient. EBV maintains a latent state of replication in this cell line. These cells were maintained in RPMI 1640 with 10% fetal bovine serum containing 100 U penicillin per ml and 100 μg streptomycin per ml.
To test the sensitivity of EBV-positive lymphoma cells towards HDAC inhibitors, P3HR1 cells were treated with HDAC inhibitors in the presence of one anti-viral drug. At the end of the assay, the efficacy of the HDAC inhibitors was assessed by measuring the inhibition of cell growth compared to untreated cells.
(§3) Healthy, actively-growing P3HR1 cells were harvested and resuspended in fresh growth media. Cells were seeded in wells. Appropriate dilutions of HDAC inhibitors were added to certain wells, some of which received an anti-viral drug (such as GCV at 50 μM concentration). At 72 hrs, 800 μl of culture fluid was removed from each well. Wells were then refed with 1.0 ml fresh growth media without HDAC inhibitors. Fresh GCV solution was added to the wells that originally received GCV at the same initial concentration. On day 6, cell morphology was observed under microscope and viable cell counts in each individual wells were determined by trypan blue dye exclusion method using an automated cell counter (Countess, Invitrogen).

HIV-1 = settings: OD, converted to pg of protein
Experimental: Virus production (p24 release) was examined in an HIV-1-infected monocyte line. Cells were treated or not treated with HDAC-inhibitors and other compounds. P24 release expressed as optical density (“OD”) (FIG. 13), and then converted to pg of protein (FIG. 14). […] DMSO was vehicle for some of the compounds tested.

P3HR1 cells [2] = assay type: cell-based, human; settings: then GCV for up to 6 days
P3HR1 cells [3] = test: Titration / toxicity of HDAC inhibitors alone on P3HR1 cells; assay type: cell-based, human
Experimental: as §3

P3HR1 cells [4] = assay type: cell-based, human
Experimental: as §2, with “throughout these assays.” for “in the study.”, “Cells” for “These cells”, “ml. […] Viable cell counts were measured and toxicity was expressed as percentage of cell growth compared to untreated cells. As shown in FIG. 2A and FIG. 2B, PCV was less toxic to the cells compared to GCV.” for “ml.”

EBV-TK = test: Induction of EBV-TK in EBV-immortalized B-cells and patient-derived tumor cells; assay type: cell-based, Epstein-Barr virus; settings: for expression of viral thymidine kinase and other viral protein kinases: EBV-infected lymphocytes
Description: In some embodiments, inducing agents include arginine butyrate and/or other histone deacetylase inhibitors. […] This expression of a viral gene can be used as a point for attack by anti-viral agents, allowing for treatment of latent infections.
Treatment of patients with viral-associated tumors such as EBV with inducing agents such as arginine butyrate, to induce the expression of EBV-TK/EBV-PK, and GCV, to eliminate EBV-TK/EBV-PK expressing tumor cells, is an effective, non-toxic therapy. […] Without wishing to be bound by theory, it is believed that just the presence of the EBV genome in latent form would make the tumor susceptible to this combination protocol.

Cc1[nH]c2ccccc2c1CCNCc1ccc(/C=C/C(=O)NO)cc1 [LBH589]
EBV-TK expression in the tumor cells (EBV TK): strongly induced
TK expression level (EBV TK; compared to optimum concentration of NaB (2.5 mM)): quite high
concentration with activity in combination with GCV comparable to NaB at 1.0 mM (P3HR1 cells [1]): 50 nM
effective concentration (P3HR1 cells [1]): 50 to 100 nM
virus production (p24 release) (HIV-1): active

Nc1ccccc1NC(=O)c1ccc(CNC(=O)OCc2cccnc2)cc1 [MS-275, 3-pyridinylmethyl [[4-[[(2-aminophenyl)amino]carbonyl]phenyl]methyl] carbamate]
exposure sensitizing cells to GCV-mediated effects as efficiently as 72 hr continuous treatment (P3HR1 cells [2]): 24 h
EBV-TK expression in the tumor cells (EBV TK): strongly induced
concentration strongly inducing TK expression (EBV TK): ≥ 500 nM
time post treatment at which TK expression was induced (EBV TK): 6 h
concentration with activity in combination with GCV comparable to NaB at 1.0 mM (P3HR1 cells [1]): 500 nM
effective concentration (P3HR1 cells [1]): 200 to 500 nM

CCCC(=O)[O-].[Na+] [NaB, sodium butyrate]
cell growth, HDAC inhibitor alone (P3HR1 cells [3]; NaB at concentration higher than 1.0 mM): reduces cell growth to a significant degree
reduction of growth compared to cells treated with NaB or GCV alone (P3HR1 cells [1]; NaB+GCV): up to 50%
optimal concentration (P3HR1 cells [1]; combination with GCV): 1.0 mM

Nc1nc2c(ncn2CCC(CO)CO)c(=O)[nH]1 [PCV, penciclovir]
toxicity (percentage of cell growth compared to untreated cells) (P3HR1 cells [4]): less toxic
inhibition of cell growth at higher concentrations (P3HR1 cells [4]; PCV at higher concentrations, combination with Na-butyrate): did not change significantly

O=C(/C=C/c1cccc(S(=O)(=O)Nc2ccccc2)c1)NO [PXD101]
TK expression (EBV TK): high level

CCC(Nc1ncnc2ccccc12)C(=O)O (stereo not drawn) [RB3]
virus production (p24 release) (HIV-1): levels similar to the control of vehicle alone

O=C(CCCCCCC(=O)Nc1ccccc1)NO [SAHA, suberoyl anilide hydroxamic acid]
TK expression level (EBV TK; compared with efficient concentrations of butyrate (1.0 mM)): higher level

CCC(C)(C)C(=O)O [ST20, 2,2-dimethyl butyrate]
virus production (p24 release) (HIV-1): levels similar to the control of vehicle alone

O=C(CCCCCN1C(=O)c2cccc3cccc(c23)C1=O)NO [Scriptaid]
effect with GCV in reducing cell growth (P3HR1 cells [1]; especially at 500 nM and 1 μM): strong synergistic effect

CCCC(CCC)C(=O)O [VA, valproic acid]
efficiency in inducing TK expression (EBV TK; compared with NaB): less efficient than NaB
activity in combination with GCV on cell growth / cell killing (P3HR1 cells [1]): very similar activity

CCC(=O)CCCCC[C@@H]1NC(=O)[C@H]2CCCCN2C(=O)[C@H]([C@@H](C)CC)NC(=O)[C@H](Cc2cn(OC)c3ccccc23)NC1=O [apicidin]
toxicity to the cells (P3HR1 cells [3]; 500 nM): very toxic
concentration quite toxic to the cells (P3HR1 cells [3]; apicidin alone): higher than 200 nM
reduction of cell growth over cells treated with apicidin alone (P3HR1 cells [1]; 100 nM and 200 nM, with GCV): 40-50%
virus production (p24 release) (HIV-1): active

CC(C)C(N)=O [isobutyramide]
expression of viral thymidine kinase and other viral protein kinases (EBV-TK): enhance expression

CCCCCCCC(=O)SCC/C=C/[C@@H]1CC(=O)NCc2nc(cs2)C2=N[C@@](C)(CS2)C(=O)N[C@@H](C(C)C)C(=O)O1 [largazole]
virus production (p24 release) (HIV-1): active

CCCCCCCCCCCCCC(=O)O[C@@H]1[C@@H](C)[C@@]2(O)[C@@H](C=C(CO)C[C@]3(O)C(=O)C(C)=C[C@@H]23)[C@@H]2C(C)(C)[C@]12OC(C)=O [phorbol myristate acetate]
virus production (p24 release) (HIV-1): active

CC(C=CC(=O)NO)=CC(C)C(=O)c1ccc(N(C)C)cc1 (stereo not drawn) [trichostatin A, 7-[4-(dimethylamino)phenyl]-N-hydroxy-4,6-dimethyl-7-oxohepta-2,4-dienamide]
virus production (p24 release) (HIV-1): active

Oxamflatin
activity in combination with GCV on cell growth / cell killing (P3HR1 cells [1]): synergistic activity
activity level (growth suppression) with GCV (P3HR1 cells [1]; at 200 nM, compared with 1.0 mM NaB): more than what typically seen with 1.0 mM NaB

arginine butyrate
EBV-TK activity (EBV-TK; EBV-immortalized B-cells and patient-derived tumor cells): induces EBV-TK activity
expression of viral thymidine kinase and other viral protein kinases (EBV-TK): enhance expression
virus production (p24 release) (HIV-1): active
